Assay results taken from patent US8236339B2, “Therapeutic delivery of carbon monoxide” (priority 2001, dated 2012).
Entries after “also recorded” stand apart in the source; their conditions may differ.

Columns and labels:
[1] = Systemic blood pressure and heart rate in anaesthetised Sprague-Dawley rats; type: in vivo, rat; conditions: for HR, 60 μmol.kg^−1 / MAP, 60 μmol.kg^−1: directly after i.v. bolus 60 μmol/kg (cumulative 100); for HR, Baseline / MAP, Baseline: just before infusion of the compound
Experimental: Adult male Sprague-Dawley rats (280-350 g, 8-10 weeks of age) were bred in-house at the Northwick Park Institute for Medical Research (Harrow, UK). Rats were housed in groups of 3 in cages under a 12 h cycle of day/night, with free access to drinking water and fed ad libitum. All surgical procedures were performed in compliance with U.K. Home Office regulations. Rats were anaesthetised in a polycarbonate chamber in a stream of Enflurane™ (Abbot, UK) in oxygen before being transferred onto a mask and continuously supplied with Enflurane™ throughout the experiment with an anaesthetic machine (Aimed, UK). During the surgical procedure the rats were kept at a constant body temperature of 37° C. using a heat pad positioned underneath the operating surface. Specially designed femoral artery and venous catheters were then surgically implanted as previously described (see ref. 40). The catheter in the artery was connected via a luer connector and a three-way tap to a pressure transducer (Gould model P23ID, Statham, USA) for continuous mean arterial pressure (MAP) and heart rate (HR) monitoring. A purpose-built tail-cuff pressure transducer (ADInstruments, UK) was also placed on the tail of the rat and pressure transducer and tail cuff were connected to a polygraph recorder (Grass, Model 7D, Astra-med, UK) pre-calibrated in millimeters of mercury (mmHg). An analogue output provided data for a computer-based data acquisition system (PowerLab™, ADInstruments, UK). The computer-based system was set to record mean arterial pressure (MAP), in mmHg, and heart rate (HR), in beats/min (bpm), for the duration of the experiment. […] Once a stable pressure had been reached, each catheter was flushed with saline containing heparin and no further changes were made to the anaesthetic supply. Ru(CO)3Cl(glycinato) (CO-RM-3) was prepared in stock solutions of 20, 60 and 120 μmoles·ml^−1 by solubilizing the compound in saline. […] CO-RM-3 (or the negative control) was then infused into the animal via the femoral vein catheter as a bolus so that the final concentration infused was 10, 30 or 60 μmoles·kg^−1 body weight. Throughout the experiment MAP and HR were continuously recorded and monitored. Although concentrations of 10, 30 and 60 μmoles·kg^−1 were infused into each animal, the resulting concentrations in the animal were cumulative. Therefore, the final concentration attained in the animal was 10, 40 and 100 μmoles·kg^−1, respectively.
The results are presented in Table 2, where the data shown represents samples taken at baseline (just before infusion of the compound) and directly after administration of 10, 30 and 60 μmoles·kg^−1 of the compound. All data are mean i SEM. n=3 independent experiments. *P<0.05 vs. baseline.

[2] = test system: isolated rat hearts; conditions: for effect on L-NAME-mediated vasoconstriction / rise in CPP: L-NAME 25 μM perfusion
Experimental: Langendorff heart preparations were performed using male Lewis rats (300-350 g) as previously described by our group (35). […] (pH 7.4). Coronary perfusion pressure (CPP), a parameter indicative of coronary vessel contractility, was continuously measured by a pressure transducer connected to the aortic cannula and data analyzed with an Acknowledge software (BIOPAC System Inc.).
Hearts removed either from control rats (vehicle-treated) or from animals that were pre-treated with the heme oxygenase-1 inducer hemin (75 μmol/kg, i.p.) the day before, were initially equilibrated for 20 min on the Langendorff apparatus and then perfused with L-NAME (25 μM final concentration) to elicit vasoconstriction. The extent of CPP increase by L-NAME was also monitored over time in hemin-treated animals that received a heme oxygenase inhibitor (SnPPIX, 40 μmol/kg) 1 h prior to heart excision and in control hearts that were perfused with buffer supplemented with [Mn2(CO)10] (13 μM final concentration). Since [Mn2(CO)10] releases CO only by photodissociation, Krebs buffer containing [Mn2(CO)10] was exposed to a cold light source immediately before entering the aortic cannula.

[3] = L-NAME-induced increase in mean arterial pressure in anaesthetised Lewis rats; type: in vivo, rat; conditions: L-NAME 30 μmol/kg i.v.; [Ru(CO)3Cl2]2 60 μmol/kg i.v. 1 h before; hemin 75 μmol/kg i.p. 24 h before; SnPPIX 40 μmol/kg i.p.
Experimental: Lewis rats (280-350 g) were anaesthetised by intramuscular injection of 1 ml/kg Hypnorm (fentanyl 0.315 mg/ml and fluanisone 10 mg/ml) followed 5 min later by an intraperitoneal injection of 5 mg/kg diazepam. Specially designed femoral artery and venous catheters were then surgically implanted as previously described (40). The arterial cannula was connected to a Grass pressure transducer and blood pressure monitored continuously using a polygraph recorder. Experiments were conducted on anaesthetized animals and recordings were made within 30 min of the surgical procedure.
Control rats (vehicle-treated) and animals that were pre-treated with hemin (75 μmol/kg, i.p) 24 h prior to blood pressure monitoring were then administered with an intravenous injection of 30 μmol/Kg L-NAME to elicit an increase in mean arterial pressure. The extent of blood pressure increase by L-NAME was also monitored over time in hemin-treated animals that received SnPPIX (40 μmol/kg, i.p.) and in control rats previously injected with [Ru(CO)3Cl2]2 (60 μmol/kg, i.v.). In these two groups, SnPPIX or [Ru(CO)3Cl2]2 were administered to animals 1 h prior to L-NAME injection.

[4] = test system: Rat vascular smooth muscle cells; assay: Cell viability of vascular smooth muscle cells (colorimetric assay); type: cell-based
Experimental: Rat vascular smooth muscle cells were obtained from the Coriell Cell Repository (Camden, N.J., USA) and grown in Dulbecco's […] (MEM) supplemented with 20% foetal calf serum, 2×MEM vitamins, 2×MEM non-essential and essential amino acids, penicillin (100 units/ml) and streptomycin (0.1 mg/ml). Confluent cells were treated with different concentrations of metal carbonyl (introduced as DMSO solution—see section B) for various times and cell viability was assessed using a colorimetric assay kit from Promega (Madison, Wis., USA) as previously described (47) after 3 or 24 h incubation, or after 3 h exposure to the agents followed by 21 h incubation in complete media. Results are expressed as the mean±s.e.m. of 6 independent experiments and differences were considered statistically significant at P<0.05 (*).

[5] = test system: deoxymyoglobin (deoxy-Mb); assay: Myoglobin assay: conversion of deoxy-Mb to MbCO on direct addition of metal carbonyl; type: biochemical, horse; conditions: for MbCO formation / CO release when added directly to deoxy-Mb solution: direct addition to myoglobin solution (66 μM), no light
Experimental: The release of CO from metal carbonyl complexes was assessed spectrophotometrically by measuring the conversion of deoxymyoglobin (deoxy-Mb) to carbonmonoxy myoglobin (MbCO). MbCO has a distinctive absorption spectrum between 500 and 600 nm, and changes at 540 nm were used to quantify the amount of CO liberated. Myoglobin solutions (66 μM final concentration) were prepared freshly by dissolving the protein in 0.04 M phosphate buffer (pH 6.8). Sodium dithionite (0.1%) was added to convert myoglobin to deoxy-Mb prior to each reading. All the spectra were measured using a Helios a spectrophotometer.
Various metal carbonyl complexes were tested for their ability to elicit MbCO formation when added directly to a deoxy-Mb solution. To different extents, [Ru(CO)3Cl2]2, [Ru(CO)2(DMSO)2Cl2], [Ru(CO)3Cl2(cytosine)] and […] all released CO when added directly to the Mb solution.
The metal carbonyl complex was solubilized in DMSO (9.7 mM stock solution), aliquots of 2 to 32 μl were added directly to 1 ml of deoxy-Mb solutions (66 μM) and absorption spectrum determined immediately after mixing the samples by inversion.

[6] = test system: aortic rings pre-contracted with phenylephrine; assay: Relaxation of isolated aortic rings pre-contracted with phenylephrine; design: species or system rat; conditions: for vasodilatory effect on pre-contracted aortic rings (in words): consecutive additions; for % Relaxation, 1st addition / % Relaxation, 2nd addition / % Relaxation, 3rd addition: cumulative doses, phenylephrine 3 μM
Experimental: Transverse ring sections of thoracic aorta were isolated from male Lewis rats and suspended under a 2 g tension in an organ bath containing oxygenated Krebs-Henseleit buffer at 37° C. as previously described (23). The relaxation response to cumulative doses of metal carbonyl (dissolved in DMSO—see section 2) was assessed in aortic rings pre-contracted with phenylephrine (3 μM). Control rings were similarly treated by adding equal doses of DMSO (vehicle) to the organ bath.

[7] = directly after i.v. bolus 10 μmol/kg
[8] = directly after i.v. bolus 30 μmol/kg (cumulative 40)

Compound	effect on L-NAME-induced increase in blood pressure [3]	MbCO formation / CO release when added directly to deoxy-Mb solution [5]	vasodilatory effect on pre-contracted aortic rings (in words) [6]	% Relaxation, 1st addition [6] [%]	% Relaxation, 2nd addition [6] [%]	% Relaxation, 3rd addition [6] [%]	other results
CS(C)=O.CS(C)=O.CS(C)=O.CS(C)=O.[Cl][Ru][Cl] [Cis-RuCl2(DMSO)4, reference compound]							effects on HR or MAP (in words) ([1]; 10, 30 or 60 μmoles·kg^−1): no significant effects on either HR or MAP; marginal increase in MAP during the administration of each bolus ([1]; believed to be a volume effect, also seen with saline): 5.5±1 mmHg; HR, 10 μmol.kg^−1 [1, 7]: 255 ± 6 bpm; MAP, 10 μmol.kg^−1 [1, 7]: 82 ± 4 mmHg; HR, 30 μmol.kg^−1 [1, 8]: 256 ± 8 bpm; MAP, 30 μmol.kg^−1 [1, 8]: 79 ± 5 mmHg; HR, 60 μmol.kg^−1 [1]: 256±9 bpm; MAP, 60 μmol.kg^−1 [1]: 81±4 mmHg; HR, 60 μmol.kg^−1 ([1]; listed as Cts-RuCl2(DMSO)4): 256 ± 9 bpm; MAP, 60 μmol.kg^−1 ([1]; listed as Cts-RuCl2(DMSO)4): 81± 4 mmHg; HR, Baseline [1]: 257±7 bpm; MAP, Baseline [1]: 80±2 mmHg; HR, Baseline ([1]; listed as Cts-RuCl2(DMSO)4): 257 ± 7 bpm; MAP, Baseline ([1]; listed as Cts-RuCl2(DMSO)4): 80 ± 2 mmHg
COC(=O)[C@@H](N)CCCNC(=N)N[N+](=O)[O-] [L-NAME, N^G-nitro-L-arginine methyl ester]	rapid and significant increase in blood pressure						maximum increase in CPP ([2]; L-NAME 25 μM, after 30 min): 3 fold
O.[Cl][Ru]([Cl])[Cl] [RuCl3, ruthenium(III) chloride hydrate, reference compound]							decrease in cell viability over time ([4]; equivalent molar concentrations of ruthenium): did not cause any appreciable decrease in cell viability
C=Cc1c2[n-]c(c1C)/C=c1\[n-]/c(c(C)c1C=C)=C\c1[n-]c(c(CCC(=O)O)c1C)C=c1[n-]/c(c(C)c1CCC(=O)O)=C\2.[Sn+4] [SnPPIX, tin protoporphyrin IX]	totally reversed						effect on L-NAME-mediated vasoconstriction / rise in CPP [2]: the effect of hemin was completely reversed
[C-]#[O+].[C-]#[O+].[C-]#[O+].[C-]#[O+].[C-]#[O+].[C-]#[O+].[Cl][Ru][Cl].[Cl][Ru][Cl] [[Ru(CO)3Cl2]2, tricarbonyldichlororuthenium (II) dimer]	markedly suppressed	released CO	rapid and significant vasodilatation	49.9 ± 2.7	66.2 ± 3.2	74.1 ± 4.1	moles of CO liberated for each mole of compound ([5]; 9.7 mM DMSO stock, 2 to 32 μl added to 1 ml deoxy-Mb 66 μM, linear regression of MbCO saturation curve): approximately 0.7 moles; cell viability ([4]; 3 h exposure followed by additional 21 h incubation in complete medium): well preserved; cytotoxicity ([4]; 3 h treatment, 0-420 μM final concentration): did not promote any detectable cytotoxicity; loss in cell viability ([4]; prolonged exposure (24 h), very high concentrations (>400 μM)): > 50%; extent of relaxation after the first addition, more than control ([6]; 222 μM final concentration): 45%; phenylephrine-induced contraction after extensive washing ([6]; after extensive washing, restored in control but not in treated vessels): produces long-lasting effects
[Fe(SPh)2(2,2′-bipyridine)(CO)2]		did not release any detectable CO to myoglobin; also recorded: No MbCO was detected	very effective in promoting vasorelaxation	50.8	60.5	75	
[Fe(SPh)2(H2NCH2CH2NH2)(CO)2]		No MbCO was detected	less evident	11	24.6	29.3	
[Ru(CO)2(DMSO)2Cl2]		released CO	produced vasodilatation although the effect was less pronounced compared to [Ru(CO)3Cl2]2	1.6	16	35	
[Ru(CO)3Cl2(cytosine)]		released CO	did not demonstrate any effect	3.2	10.3	12.6	
manganese chloride							effect on L-NAME-mediated vasoconstriction / rise in CPP [2]: had no effect on myocardial CPP
